The values below are quoted from earlier work in patent US6387950B2, “Treatment of tumors with RARα selective retinoid compounds in combination with other anti-tumor agents” (Allergan Sales, Inc., priority 2000, dated 2002).

One data set deals with carcinoma cell lines. The note with it: in some of the cell lines; Fanjul et al. 1996; cited from earlier work.
The next data set has as its target T1, RARγ receptors (Homo sapiens, UniProt P13631).
T1 sequence (P13631 1-454): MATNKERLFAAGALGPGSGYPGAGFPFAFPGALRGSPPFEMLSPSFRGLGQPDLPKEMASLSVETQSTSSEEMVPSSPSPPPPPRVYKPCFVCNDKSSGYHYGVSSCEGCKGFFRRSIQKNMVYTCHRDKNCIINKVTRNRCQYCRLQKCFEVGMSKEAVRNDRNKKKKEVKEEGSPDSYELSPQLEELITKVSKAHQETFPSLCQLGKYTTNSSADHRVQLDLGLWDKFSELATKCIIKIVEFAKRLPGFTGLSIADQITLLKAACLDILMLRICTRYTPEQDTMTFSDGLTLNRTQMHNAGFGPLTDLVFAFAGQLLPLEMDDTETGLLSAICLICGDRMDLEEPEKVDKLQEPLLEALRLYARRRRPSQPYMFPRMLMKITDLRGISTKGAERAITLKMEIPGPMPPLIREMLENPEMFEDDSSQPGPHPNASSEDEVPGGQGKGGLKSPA
The note with it: Fanjul et al. 1996; cited from earlier work.

Data set [1] relates to MCF-7 human breast cancer lines. The note with it: Toma et al. 1997; cited from earlier work.
Data set [2] deals with MCF-7 human carcinoma cell lines. Conditions: Kurbacher et al. 1996; cited from earlier work.
In data set [3] the test system is MDA-MB 231 human carcinoma cell lines. Conditions: Kurbacher et al. 1996; cited from earlier work.

For the molecule `COC(=O)c1ccc(/C(C)=C/c2ccc3c(c2)C(C)(C)CCC3(C)C)cc1` [SRI 11220], the “anti-proliferative activity in combination with interferon” value in the data set on carcinoma cell lines is on record as “synergistic”. Besides, the receptor activity result on RARγ receptors was “RARγ agonist”.

For the molecule `CC1=C(/C=C/C(C)=C/C=C/C(C)=C/C(=O)O)C(C)(C)CCC1` [all trans retinoic acid], in data set [1], the “effect in combination with tamoxifen (TAM)” value is reported as “synergistic effect” and the “effect in combination with α interferon (α IFN)” value is given as “synergistic effects”.

In the case of `O=C1O[C@H]([C@@H](O)CO)C(O)=C1O` [vitamin C], the “action with certain chemotherapeutic anti-tumor agents” value in data set [2] and in data set [3] was “synergistic action” throughout.
